Read-outs that look alike come from different tables or passages of the source.
Details: mouse, in vivo
Protocol: In vivo toxicity of the polymer of Formula II was assayed in mice. Groups of 5 animals were dosed twice daily for 5 days by oral gavage at a dose of 10, 100, or 500 mg/kg body weight. Animals were assessed daily, and deaths were recorded. The dose at which ½ the animals died was considered the LD50.

Poly(4,4′-trimethylenebis(1-methylpiperidinium)-alt-1,8-octane) [Formula II]
tolerability in 5-day oral toxicity study (10 mg/kg/day): well tolerated
tolerability in 5-day oral toxicity study (100 mg/kg/day): moderate toxicity was evident

— patent US6955806B2, “Ionene polymers and their use as antimicrobial agents” (Genzyme Corporation, priority 2001, dated 2005)
